Like-named read-outs stand apart in the source and are kept apart here.
Assays:
[1] = target: T1, human DGKα (Homo sapiens, UniProt P23743); test: DGKα LIPGLO assay (extruded liposome substrate), in vitro DGK inhibition; assay type: biochemical; conditions: read-out: DGKa LIPGLO IC50
T1 construct: TVMV protease cleavage site (C); Hexa-His (C); made in house; host or cells: Sf9 insect cells (baculovirus, Bac-to-Bac)

[2] = tested on: Human venous whole blood; test: Human whole blood IFN-γ assay; assay type: cell-based; conditions: human whole blood, read-out: INFg Whole Blood Normalized Agonist EC50;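 note: blood from healthy donors exposed to compound for 1 h before stimulation with anti-CD3 and anti-CD28 at 1 µg/mL each, IFN-γ quantified in supernatant by AlphaLISA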
Procedure: Human Whole Blood IFN-γ Assay
Human venous whole blood (22.5 μL per well), obtained from healthy donors, was pre-treated with compounds for one hour at 37° C. in a humidified 95% air/5% CO2 incubator. The blood was stimulated with 2.5 μL anti-human CD3 and anti-CD28 mAb at a final concentration of 1 μg/mL each for 24 hours at 37° C. IFN-γ in the supernatants was measured using AlphLISA kit (Cat # AL217).

[3] = target: T2, human DGKζ (Homo sapiens, UniProt Q13574); test: DGKζ LIPGLO assay (extruded liposome substrate), in vitro DGK inhibition; assay type: biochemical; conditions: read-out: DGKz LIPGLO IC50
T2 construct: TVMV protease cleavage site (C); Hexa-His (C); made in house; host or cells: Sf9 insect cells (baculovirus, Bac-to-Bac)
T2 sequence (Q13574 with tags, fused parts or gaps isoform Q13574-4): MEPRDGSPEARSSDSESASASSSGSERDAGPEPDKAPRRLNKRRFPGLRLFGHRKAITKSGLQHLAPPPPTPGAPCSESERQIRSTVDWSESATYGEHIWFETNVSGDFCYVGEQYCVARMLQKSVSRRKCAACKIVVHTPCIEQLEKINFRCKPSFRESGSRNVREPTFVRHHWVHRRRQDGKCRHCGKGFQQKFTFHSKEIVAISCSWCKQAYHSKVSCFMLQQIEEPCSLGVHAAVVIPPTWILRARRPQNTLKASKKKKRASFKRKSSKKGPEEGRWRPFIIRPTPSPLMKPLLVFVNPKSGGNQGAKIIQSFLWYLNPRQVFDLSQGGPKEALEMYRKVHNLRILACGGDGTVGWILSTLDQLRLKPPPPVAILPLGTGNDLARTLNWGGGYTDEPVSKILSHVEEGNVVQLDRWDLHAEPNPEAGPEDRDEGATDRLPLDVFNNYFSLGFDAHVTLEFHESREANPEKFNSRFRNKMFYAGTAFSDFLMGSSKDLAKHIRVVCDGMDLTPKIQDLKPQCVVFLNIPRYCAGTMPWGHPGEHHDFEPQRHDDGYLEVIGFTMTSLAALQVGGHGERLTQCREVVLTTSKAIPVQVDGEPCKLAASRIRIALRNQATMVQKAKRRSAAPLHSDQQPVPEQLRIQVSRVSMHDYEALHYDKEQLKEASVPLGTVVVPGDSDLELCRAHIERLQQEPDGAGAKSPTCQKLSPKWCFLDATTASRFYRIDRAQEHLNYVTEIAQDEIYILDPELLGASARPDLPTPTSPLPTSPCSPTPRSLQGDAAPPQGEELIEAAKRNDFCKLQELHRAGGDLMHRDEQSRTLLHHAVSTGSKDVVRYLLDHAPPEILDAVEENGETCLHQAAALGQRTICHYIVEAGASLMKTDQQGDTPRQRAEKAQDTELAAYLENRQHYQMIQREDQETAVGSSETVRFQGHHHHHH

[4] = tested on: naïve human CD8 T cells; test: Human CD8 T cells IFN-γ assay; assay type: cell-based; conditions: read-out: HuCD8 INFG Normalized EC50;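 note: Naïve human CD8 T cells stimulated with plate-bound anti-CD3 and soluble anti-CD28, IFN-γ in supernatant quantified by AlphaLISA and converted to pg/mL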
[5] = Homo sapiens, 24 h, anti-CD3 plus anti-CD28, 24 hours, 3 μM reference compound = 100% activation
[6] = Homo sapiens, T-cell, 20 h, naïve human CD8 T cells, anti-CD3 plus anti-CD28, 3 μM reference compound = 100% activation
[7] = normalized to 3 μM reference compound with anti-CD3 plus anti-CD28 as 100% activation
[8] = anti-CD3 plus anti-CD28, 24 hours, 3 μM reference compound = 100% activation
[9] = naïve human CD8 T cells, anti-CD3 plus anti-CD28, 3 μM reference compound = 100% activation
[10] = Homo sapiens, 24 h, normalized to 3 μM reference compound with anti-CD3 plus anti-CD28 as 100% activation
[11] = Homo sapiens, T-cell, 20 h, normalized to 3 μM reference compound with anti-CD3 plus anti-CD28 as 100% activation

T1 sequence (P23743 with tags, fused parts or gaps): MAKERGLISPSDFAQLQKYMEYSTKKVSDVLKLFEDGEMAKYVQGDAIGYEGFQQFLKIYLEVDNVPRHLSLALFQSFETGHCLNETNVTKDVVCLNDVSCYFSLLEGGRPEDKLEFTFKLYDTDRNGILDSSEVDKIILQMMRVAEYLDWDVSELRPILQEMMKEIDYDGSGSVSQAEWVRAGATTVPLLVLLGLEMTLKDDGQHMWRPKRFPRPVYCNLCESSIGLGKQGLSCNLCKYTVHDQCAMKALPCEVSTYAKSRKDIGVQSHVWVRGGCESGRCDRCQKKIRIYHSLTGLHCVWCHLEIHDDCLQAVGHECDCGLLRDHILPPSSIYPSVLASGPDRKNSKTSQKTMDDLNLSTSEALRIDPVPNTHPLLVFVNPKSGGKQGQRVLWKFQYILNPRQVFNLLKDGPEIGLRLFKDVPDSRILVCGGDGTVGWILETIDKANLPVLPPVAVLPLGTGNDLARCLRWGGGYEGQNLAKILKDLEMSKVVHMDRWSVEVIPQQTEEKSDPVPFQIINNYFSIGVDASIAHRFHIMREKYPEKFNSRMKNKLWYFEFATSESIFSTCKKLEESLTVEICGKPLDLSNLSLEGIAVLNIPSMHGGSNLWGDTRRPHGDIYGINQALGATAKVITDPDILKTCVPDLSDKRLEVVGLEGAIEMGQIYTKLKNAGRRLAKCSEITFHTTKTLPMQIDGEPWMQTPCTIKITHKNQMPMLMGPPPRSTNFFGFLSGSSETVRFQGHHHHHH

SMILES	IC50 ([1]; liposome (LIPGLO) assay) [nM]	EC50 [2, 7] [nM]	IC50 ([3]; liposome (LIPGLO) assay) [nM]	EC50 [4, 7] [nM]	EC50 [2, 10] [nM]	EC50 [4, 11] [nM]	further results
Cc1ccc(C(c2ccc(C)cc2)N2C[C@H](C)N(c3c(C#N)c(=O)n(C)c4ccc(C#N)nc34)C[C@H]2C)cc1 [Example 806]	–	–	–	–	–	–	IC50 ([1]; DGKα liposome (LIPGLO) assay): 6300 nM; EC50 [2, 5]: 690 nM; IC50 ([3]; DGKζ liposome (LIPGLO) assay): 390 nM; EC50 [4, 6]: 18 nM
C[C@@H]1CN(c2cc(=O)n(C)c3ccc(C#N)nc23)[C@@H](C)CN1C(c1ccc(F)cc1)c1cccc2c1OC(F)(F)O2 (stereo partly drawn) [Example 669]	140000	860	4800	96	–	–	–
C[C@@H]1CN(c2cc(=O)n(C)c3ccc(C#N)nc23)[C@@H](C)CN1C(c1ccc(F)cc1)c1nc(-c2ccc(F)cc2)no1 (single isomer, unassigned) [Example 742]	–	–	–	–	–	–	IC50 ([1]; DGKα liposome (LIPGLO) assay): 150 nM; EC50 [2, 8]: 140 nM; IC50 ([3]; DGKζ liposome (LIPGLO) assay): 790 nM; EC50 [4, 9]: 1.5 nM
C[C@@H]1CN(c2cc(=O)n(C)c3ccc(C#N)nc23)[C@@H](C)CN1C(c1ccccc1)c1ccccc1Cl (stereo partly drawn) [Example 259, 8-[(2S,5R)-4-[(2-chlorophenyl)(phenyl)methyl]-2,5-dimethylpiperazin-1-yl]-5-methyl-6-oxo-5,6-dihydro-1,5-naphthyridine-2-carbonitrile]	3100	–	840	–	2100	550	–
CC(c1c(F)cc(F)cc1F)N1C[C@H](C)N(c2cc(=O)n(C)c3ccc(C#N)nc23)C[C@H]1C (single isomer, unassigned) [Example 432]	510	–	500	–	67	15	–
Cc1cccc(C(c2ccc(F)cc2)N2CCN(c3c(C#N)c(=O)n(C)c4ccc(C#N)nc34)C[C@H]2C)n1 (single isomer, unassigned) [Example 906]	–	–	–	–	–	–	IC50 ([1]; DGKα liposome (LIPGLO) assay): 1000 nM; EC50 [2, 8]: 810 nM; IC50 ([3]; DGKζ liposome (LIPGLO) assay): 940 nM; EC50 [4, 6]: 67 nM
C[C@@H]1CN(c2cc(=O)n(C)c3ccc(C#N)nc23)[C@@H](C)CN1C(c1ccccc1F)c1ccccc1F [Example 258, 8-[(2S,5R)-4-[bis(2-fluorophenyl)methyl]-2,5-dimethylpiperazin-1-yl]-5-methyl-6-oxo-5,6-dihydro-1,5-naphthyridine-2-carbonitrile]	240	–	820	–	1400	56	–
Cc1ccc(C(c2cccc(C)n2)N2C[C@H](C)N(c3cc(=O)n(C)c4ccc(C#N)nc34)C[C@H]2C)cc1 (stereo partly drawn) [Example 450, 8-((2S,5R)-2,5-dimethyl-4-((6-methylpyridin-2-yl)(p-tolyl)methyl)piperazin-1-yl)-5-methyl-6-oxo-5,6-dihydro-1,5-naphthyridine-2-carbonitrile]	2600	–	290	–	280	70	–
C[C@@H]1CN(c2cc(=O)n(C)c3ccc(C#N)nc23)[C@@H](C)CN1C(c1ccc(F)cc1)c1ncccc1F (single isomer, unassigned) [Example 187]	180	1400	1300	110	–	–	–
C[C@@H]1CN(c2cc(=O)n(C)c3ccc(C#N)nc23)[C@@H](C)CN1C(c1ccc(Cl)cc1)c1ccc(F)cn1 (single isomer, unassigned) [Example 192]	120	600	1500	56	–	–	–
C[C@@H]1CN(c2cc(=O)n(C)c3ccc(C#N)nc23)[C@@H](C)CN1C(c1ccccc1)c1cc(F)cc(F)c1 (stereo partly drawn) [Example 288, 8-[(2S,5R)-4-[(3,5-difluorophenyl)(phenyl)methyl]-2,5-dimethylpiperazin-1-yl]-5-methyl-6-oxo-5,6-dihydro-1,5-naphthyridine-2-carbonitrile]	2000	–	2200	–	810	26	–
Cc1ccc(C(c2ccc(Cl)cc2)N2CCN(c3c(C#N)c(=O)n(C)c4ccc(C#N)nc34)C[C@H]2C)cc1 (mixture of isomers) [Example 907]	–	–	–	–	–	–	IC50 ([1]; DGKα liposome (LIPGLO) assay): 4400 nM; EC50 [2, 5]: 730 nM; IC50 ([3]; DGKζ liposome (LIPGLO) assay): 1500 nM; EC50 [4, 6]: 70 nM
CC[C@@H]1CN(c2cc(=O)n(C)c3ccc(C#N)nc23)[C@@H](C)CN1C(c1ccc(F)cc1)c1ncccc1F (stereo partly drawn) [Example 1105]	150	320	440	200	–	–	–
C[C@@H]1CN(c2cc(=O)n(C)c3ccc(C#N)nc23)[C@@H](C)CN1C(c1ccccc1)c1cccc(F)c1F (stereo partly drawn) [Example 276, 8-[(2S,5R)-4-[(2,3-difluorophenyl)(phenyl)methyl]-2,5-dimethylpiperazin-1-yl]-5-methyl-6-oxo-5,6-dihydro-1,5-naphthyridine-2-carbonitrile]	1200	–	1000	–	2400	180	–
C[C@@H]1CN(c2cc(=O)n(C)c3ccc(C#N)nc23)[C@@H](C)CN1C(c1ccc(Cl)cc1)c1cccc(F)n1 (single isomer, unassigned) [Example 196]	1300	1400	3000	47	–	–	–
C[C@@H]1CN(c2cc(=O)n(C)c3ccc(C#N)nc23)[C@@H](C)CN1C(c1ccc(Cl)cc1)c1ccc(Cl)cn1 (single isomer, unassigned) [Example 202]	110	380	490	8.3	–	–	–
Cc1ccc(C(c2ccc(F)cc2)N2CCN(c3c(C#N)c(=O)n(C)c4ccc(C#N)nc34)C[C@H]2C)nc1 (single isomer, unassigned) [Example 915]	–	–	–	–	–	–	IC50 ([1]; DGKα liposome (LIPGLO) assay): 740 nM; EC50 [2, 8]: 550 nM; IC50 ([3]; DGKζ liposome (LIPGLO) assay): 1300 nM; EC50 [4, 6]: 100 nM
COc1ccc2c(n1)c(N1C[C@@H](C)N(C(c3ccc(F)cc3)c3ccc(F)cc3)C[C@@H]1C)cc(=O)n2C [Example 241]	8300	–	17000	–	16000	1600	–
COc1cc(F)ccc1C(N1C[C@H](C)N(c2cc(=O)n(C)c3ccc(C#N)nc23)C[C@H]1C)C(C)(C)C (single isomer, unassigned) [Example 186]	3300	20000	14000	10000	–	–	–
CCc1cc(F)ccc1C(c1ccc(Cl)cc1)N1C[C@H](C)N(c2cc(=O)n(C)c3ccc(C#N)nc23)C[C@H]1C (single isomer, unassigned) [Example 226]	67000	1700	1400	67	–	–	–
CCc1ccccc1C(c1ccc(F)cc1)N1C[C@H](C)N(c2cc(=O)n(C)c3ccc(OC)nc23)C[C@H]1C (single isomer, unassigned) [Example 236]	240000	20000	11000	10000	–	–	–
[2H]C([2H])(c1c(F)cc(F)cc1F)N1C[C@H](C)N(c2cc(=O)n(C)c3ccc(C#N)nc23)C[C@H]1C [Example 430, 8-((2S,5R)-2,5-dimethyl-4-((2,4,6-trifluorophenyl)methyl-d2)piperazin-1-yl)-5-methyl-6-oxo-5,6-dihydro-1,5-naphthyridine-2-carbonitrile]	410	–	2000	–	500	46	–
C[C@@H]1CN(c2cc(=O)n(C)c3ccc(C#N)nc23)[C@@H](C)CN1C(c1cccc(Cl)c1)c1cccc(Cl)c1 [Example 257, 8-[(2S,5R)-4-[bis(3-chlorophenyl)methyl]-2,5-dimethylpiperazin-1-yl]-5-methyl-6-oxo-5,6-dihydro-1,5-naphthyridine-2-carbonitrile]	25000	–	830	–	6200	810	–
COC[C@@H]1CN(c2cc(=O)n(C)c3ccc(C#N)nc23)[C@@H](C)CN1C(c1ccc(F)cc1)c1ccc(F)cc1 [Example 1155, 8-((2S,5S)-4-(bis(4-fluorophenyl)methyl)-5-(methoxymethyl)-2-methylpiperazin-1-yl)-5-methyl-6-oxo-5,6-dihydro-1,5-naphthyridine-2-carbonitrile]	1800	–	660	–	860	3.5	–
CC(C)Oc1ncccc1C(c1ccc(F)cc1)N1C[C@H](C)N(c2cc(=O)n(C)c3ccc(C#N)nc23)C[C@H]1C (single isomer, unassigned) [Example 207]	71000	3500	3100	–	–	430	–
C[C@@H]1CN(c2cc(=O)n(C)c3ccc(C#N)nc23)[C@@H](C)CN1Cc1ccccc1F [Example 287, 8-[(2S,5R)-4-[(2-fluorophenyl)methyl]-2,5-dimethylpiperazin-1-yl]-5-methyl-6-oxo-5,6-dihydro-1,5-naphthyridine-2-carbonitrile]	34	–	1600	–	7100	12000	–
C[C@@H]1CN(c2cc(=O)n(C)c3ccc(C#N)nc23)[C@@H](C)CN1C(c1ccc(F)cc1)c1nc(-c2ccc(F)cc2)no1 (single isomer, unassigned) [Example 741]	–	–	–	–	–	–	IC50 ([1]; DGKα liposome (LIPGLO) assay): 870 nM; EC50 [2, 5]: 210 nM; IC50 ([3]; DGKζ liposome (LIPGLO) assay): 1400 nM; EC50 [4, 9]: 3.7 nM

— patent US10669272B2, “Substituted naphthyridinone compounds useful as T cell activators” (BRISTOL-MYERS SQUIBB COMPANY, priority 2018, dated 2020)
